Source: patent publication US12492173B2, “Herbicidal substituted N-tetrazolyl aryl carboxamides” (Bayer Aktiengesellschaft, priority 2019, dated 2025)

Columns and labels:
Format in all cases: in vivo
Matricaria inodora = assay: Pre-emergence herbicidal action, MATIN; details: dosage 320 g/ha, scored visually after 3 weeks vs untreated controls (100% = plants have died)
Outline: (§1)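 Weed seeds sown in sandy loam and covered; WP or EC formulations applied to soil surface as aqueous suspension or emulsion at 600 to 800 l/ha with 0.2% wetting agent. Greenhouse-grown, with damage scored visually after 3 weeks versus untreated controls (0% = like control, 100% = plants dead).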

Polygonum convolvulus [1] = assay: Pre-emergence herbicidal action, POLCO; details: dosage 320 g/ha, scored visually after 3 weeks vs untreated controls (100% = plants have died)
Outline: as §1

Viola tricolor = assay: Pre-emergence herbicidal action, VIOTR; design: key to Herbicidal action against VIOTR: % activity: 100 = plants have died, 0 = like control plants; details: for herbicidal activity VIOTR: dosage 320 g/ha, scored visually after 3 weeks vs untreated controls (100% = plants have died)
Outline: as §1

Alopecurus myosuroides = assay: Post-emergence herbicidal action, ALOMY; design: key: % herbicidal action vs untreated; 100 = plants died, 0 = like control
Outline: (§2)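 WP or EC formulations, diluted in water at 600 to 800 l/ha with 0.2% wetting agent, are sprayed onto green parts of one-leaf-stage plants grown in sandy loam. Visual assessment of percent damage relative to untreated controls follows after approximately 3 weeks in the greenhouse.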

Setaria viridis = assay: Post-emergence herbicidal action, SETVI; design: key: % herbicidal action vs untreated; 100 = plants died, 0 = like control
Outline: as §2

Avena fatua = assay: Post-emergence herbicidal action, AVEFA; design: key: % herbicidal action vs untreated; 100 = plants died, 0 = like control
Outline: as §2

Polygonum convolvulus [2] = assay: Post-emergence herbicidal action, POLCO
Outline: as §2

For Cc1c(C(=O)Nc2nnnn2C)ccc(C(F)(F)F)c1C[S+](C)[O-] (stereo not drawn) [Example 1-84], the “herbicidal activity MATIN” value (Matricaria inodora) was 100%, the “herbicidal activity POLCO” value (Polygonum convolvulus [1]) was 90% and the “herbicidal activity VIOTR” value (Viola tricolor) was 100%. The “herbicidal action ALOMY” value (Alopecurus myosuroides; post-emergence, dosage 80 g/ha) was 80%, the “herbicidal action SETVI” value (Setaria viridis; post-emergence, dosage 80 g/ha) was 100% and the “herbicidal action AVEFA” value (Avena fatua; post-emergence, dosage 80 g/ha) was 90%.

In the case of CCSCc1c(C(F)(F)F)ccc(C(=O)Nc2nnnn2C)c1C [Example 1-86], the “herbicidal action POLCO” value (Polygonum convolvulus [2]; post-emergence, dosage 80 g/ha) is reported as 80%, the “herbicidal activity MATIN” value (Matricaria inodora) is reported as 100% and the “herbicidal activity POLCO” value (Polygonum convolvulus [1]) is reported as 100%. For the same compound, the “herbicidal activity VIOTR” value (Viola tricolor) was 100%, the “herbicidal action ALOMY” value (Alopecurus myosuroides; post-emergence, dosage 80 g/ha) was 80% and the “herbicidal action SETVI” value (Setaria viridis; post-emergence, dosage 80 g/ha) was 80%. The “herbicidal action AVEFA” value (Avena fatua; post-emergence, dosage 80 g/ha) was 100%.

In the case of CCSCc1c(C(F)F)ccc(C(=O)Nc2nnnn2C)c1SCC [Example 1-191], the “herbicidal action POLCO” value (Polygonum convolvulus [2]; Dosage 80 g/ha) is reported as 90, the “herbicidal activity MATIN” value (Matricaria inodora) is reported as 100% and the “herbicidal activity POLCO” value (Polygonum convolvulus [1]) is reported as 100%. For the same compound, the “herbicidal activity VIOTR” value (Viola tricolor) was 100%, the “herbicidal action ALOMY” value (Alopecurus myosuroides; Dosage 80 g/ha) was 80 and the “herbicidal action SETVI” value (Setaria viridis; Dosage 80 g/ha) was 100. The “herbicidal action AVEFA” value (Avena fatua; Dosage 80 g/ha) was 80.

Cc1ccc(C(=O)Nc2nnnn2C)c(Cl)c1CS(C)(=O)=O [Example 1-289] was tested, and the “herbicidal activity MATIN” value (Matricaria inodora) was 100%, the “herbicidal activity POLCO” value (Polygonum convolvulus [1]) was 80% and the “herbicidal activity VIOTR” value (Viola tricolor) was 90%. The “herbicidal action ALOMY” value (Alopecurus myosuroides; Dosage 80 g/ha) was 80 and the “herbicidal action SETVI” value (Setaria viridis; Dosage 80 g/ha) was 90.

CCS(=O)(=O)Cc1c(C(F)(F)F)ccc(C(=O)Nc2nnnn2C)c1Cl [Example 1-301] was tested, and the “herbicidal action POLCO” value (Polygonum convolvulus [2]; Dosage 80 g/ha) was 100, the “herbicidal activity MATIN” value (Matricaria inodora) was 100% and the “herbicidal activity POLCO” value (Polygonum convolvulus [1]) was 100%. The “herbicidal activity VIOTR” value (Viola tricolor) was 100%, the “herbicidal action ALOMY” value (Alopecurus myosuroides; Dosage 80 g/ha) was 80 and the “herbicidal action SETVI” value (Setaria viridis; Dosage 80 g/ha) was 90. The “herbicidal action AVEFA” value (Avena fatua; Dosage 80 g/ha) was 100.

For C=CCSCc1c(C(F)(F)F)ccc(C(=O)Nc2nnnn2C)c1Cl [Example 1-308], the “herbicidal action POLCO” value (Polygonum convolvulus [2]; post-emergence, dosage 80 g/ha) was 90%, the “herbicidal activity MATIN” value (Matricaria inodora) was 100% and the “herbicidal activity POLCO” value (Polygonum convolvulus [1]) was 100%. For the same compound, the “herbicidal activity VIOTR” value (Viola tricolor) was 100%, the “herbicidal action ALOMY” value (Alopecurus myosuroides; post-emergence, dosage 80 g/ha) was 100% and the “herbicidal action SETVI” value (Setaria viridis; post-emergence, dosage 80 g/ha) was 100%. For the same compound, the “herbicidal action AVEFA” value (Avena fatua; post-emergence, dosage 80 g/ha) was 100%.

For Cn1nnnc1NC(=O)c1ccc(C(F)(F)F)c(C[S+](C)[O-])c1Br (stereo not drawn) [Example 1-381], the “herbicidal action POLCO” value (Polygonum convolvulus [2]; post-emergence, dosage 80 g/ha) was 80%, the “herbicidal activity MATIN” value (Matricaria inodora) was 100% and the “herbicidal activity POLCO” value (Polygonum convolvulus [1]) was 90%. The “Herbicidal action against VIOTR” value (Viola tricolor; comparative experiment, 20 g of a.i./ha) was 90, the “herbicidal activity VIOTR” value (Viola tricolor) was 100% and the “herbicidal action ALOMY” value (Alopecurus myosuroides; post-emergence, dosage 80 g/ha) was 80%. For the same compound, the “herbicidal action SETVI” value (Setaria viridis; post-emergence, dosage 80 g/ha) was 100% and the “herbicidal action AVEFA” value (Avena fatua; post-emergence, dosage 80 g/ha) was 100%.

CCn1nnnc1NC(=O)c1ccc(C(F)F)c(CSC)c1C [Example 2-107] was tested, and the “herbicidal action POLCO” value (Polygonum convolvulus [2]; Dosage 80 g/ha) was 90, the “herbicidal activity MATIN” value (Matricaria inodora) was 100% and the “herbicidal activity POLCO” value (Polygonum convolvulus [1]) was 80%. The “herbicidal activity VIOTR” value (Viola tricolor) was 100%, the “herbicidal action ALOMY” value (Alopecurus myosuroides; Dosage 80 g/ha) was 80 and the “herbicidal action SETVI” value (Setaria viridis; Dosage 80 g/ha) was 90. For the same compound, the “herbicidal action AVEFA” value (Avena fatua; Dosage 80 g/ha) was 80.

With CCn1nnnc1NC(=O)c1ccc(C(F)(F)F)c(CS(C)(=O)=O)c1Br [Example 2-382] the “herbicidal action POLCO” value (Polygonum convolvulus [2]; Dosage 80 g/ha) was 80, the “herbicidal activity MATIN” value (Matricaria inodora) was 100% and the “herbicidal activity POLCO” value (Polygonum convolvulus [1]) was 90%. The “herbicidal activity VIOTR” value (Viola tricolor) was 100%, the “herbicidal action ALOMY” value (Alopecurus myosuroides; Dosage 80 g/ha) was 80 and the “herbicidal action SETVI” value (Setaria viridis; Dosage 80 g/ha) was 90.

CCCn1nnnc1NC(=O)c1ccc(C(F)(F)F)c(CS(C)(=O)=O)c1OC [Example 3-136] was tested, and the “herbicidal action POLCO” value (Polygonum convolvulus [2]; Dosage 80 g/ha) was 80, the “herbicidal activity MATIN” value (Matricaria inodora) was 100% and the “herbicidal activity POLCO” value (Polygonum convolvulus [1]) was 80%. For the same compound, the “herbicidal activity VIOTR” value (Viola tricolor) was 100%, the “herbicidal action ALOMY” value (Alopecurus myosuroides; Dosage 80 g/ha) was 90 and the “herbicidal action SETVI” value (Setaria viridis; Dosage 80 g/ha) was 100.

CCCn1nnnc1NC(=O)c1ccc(C(F)(F)F)c(CSC)c1Cl [Example 3-296] was tested, and the “herbicidal activity MATIN” value (Matricaria inodora) was 100%, the “herbicidal activity POLCO” value (Polygonum convolvulus [1]) was 90% and the “herbicidal activity VIOTR” value (Viola tricolor) was 100%. For the same compound, the “herbicidal action ALOMY” value (Alopecurus myosuroides; Dosage 80 g/ha) was 80, the “herbicidal action SETVI” value (Setaria viridis; Dosage 80 g/ha) was 90 and the “herbicidal action AVEFA” value (Avena fatua; Dosage 80 g/ha) was 90.

In the case of CCCn1nnnc1NC(=O)c1ccc(C(F)(F)F)c(C[S+](C)[O-])c1Cl (stereo not drawn) [Example 3-297], the “herbicidal action POLCO” value (Polygonum convolvulus [2]; post-emergence, dosage 80 g/ha) is reported as 80%, the “herbicidal activity MATIN” value (Matricaria inodora) is reported as 100% and the “herbicidal activity VIOTR” value (Viola tricolor) is reported as 100%. The “herbicidal action ALOMY” value (Alopecurus myosuroides; post-emergence, dosage 80 g/ha) was 90%, the “herbicidal action SETVI” value (Setaria viridis; post-emergence, dosage 80 g/ha) was 80% and the “herbicidal action AVEFA” value (Avena fatua; post-emergence, dosage 80 g/ha) was 100%.
